In EP0133795B1 (THE McLEAN HOSPITAL CORPORATION, priority 1983, dated 1985):
Entries after “also recorded” stand apart in the source; their conditions may differ. Like-named read-outs stand apart in the source and are kept apart here.

Tests used:
in vivo = conditions: mouse, sc
[1] = Comparative brain/liver uptake of 14C-labeled compounds (Brain Penetration Index); conditions: for increase of 5-min BPI over GABA: 5 min after s.c. injection, relative to GABA; for time at which liver levels reach a maximum: s.c.
Experimental: The criterion used herein for measuring the extent to which a compound, from which the radical A is derived, crosses the blood-brain barrier is based on the uptake of this compound by the brain relative to its uptake by the liver. […] Measurements of the quantity of a compound present in brain and liver at 5 minutes after a subcutaneous (s.c.) injection were used to calculate a Brain Penetration Index (BPI), with the equation: [formula]
This is the amount of the compound present per gram of brain tissue as a percent of the amount per gram of liver tissue.
This procedure has the advantage that even for a sparingly soluble lipid ester, which tends to remain largely at the site of the injection and slowly diffuse into the circulation, its level in the liver will reflect the amount available rather than the initial dose injected.
The uptake of a ^14C-labeled compound into brain was compared with the uptake into liver of the same animal.
All determinations were carried out at 5 min after injection. The volumes of the injected doses into mice (body weight, 18-24 g) for the i.v., i.p., and s.c. doses were 0.15, 0.3 and 0.5 ml, respectively. […] Each tissue was homogenized in 8 ml of pyridine in a glass homogenizer.
Each labeled test compound was injected as a solution in 0.5 ml of saline (Compound 7) or in 25% propylene glycol in water (Compounds 1, 5, 6) subcutaneously (s.c.) into young adult Balb/c mice (18-24 g body weight). After 5 min (or longer) animals were sacrificed and the brain and liver removed, weighed and homogenized respectively in 8 ml and 10 ml of brain protein solvent (1 % (w/v) sodium dodecyl sulfate in 6 M urea and 19 mM EDTA, pH 7.4, 0.03 M phosphate). Aliquots (0.5 ml) of the homogenates were mixed with 10 ml of Aquasol 2 (New England Nuclear) and counted in a Beckman liquid scintillation counter. The total uptake of each compound per g brain and liver tissue was calculated. The proportion of uptake into brain as compared to liver (100%) of the same animal was designated as the Brain Penetration Index (BPI), expressed as a percentage typically at 5 min after injection.
Each of the ^14C-labeled Compounds 26, 28 and 30 were in 125 µl of the propylene glycol diluted with water up to 0.5 ml, and then injected subcutaneously into test Balb/c mice (20 ± 2 g weight). After 5 min the animals were sacrificed and the brain and liver were removed, weighed and homogenized in 8 ml and 10 ml of brain protein solvent, respectively. Next 0.5 ml aliquots were mixed with 10 ml of Aquasol 2 (New England Nuclear Corp., Boston, MA) and counted in a Beckman liquid scintillation counter. The data for the label in each tissue were used to calculate the total quantity of the compound present in brain and liver per gram of tissue. The ratio of the amount in brain as a percent of that present in liver at 5 min was taken as the Brain Penetration Index (BPI). Measurements at longer uptake times were also obtained to evaluate the accumulation of the compounds in the brain.

[2] = tested on: bicuculline-induced epileptic seizures; assay: Delay of onset of bicuculline-induced seizures (anticonvulsant activity); assay type: in vivo, mouse; conditions: for In Vivo Delay of Time of Onset of Bicuculline-induced seizures: graded 0-5; for effect on bicuculline-induced seizures (in words): mice; for anticonvulsant properties: administered at doses of 30 mg/kg
Experimental: In a second behavioral test, the ability of a substance to prevent or delay the onset of biculline-induced epileptic seizures was measured. […] At 24 hr after i.p. injection of the cholesteryl derivative at a dose of 30 mg/kg (64 pmol/kg), the onset of seizures was delayed by 30% after an acute i.p. injection of bicuculline at 0.3 mg/kg. […] The dexamethasone and butyl esters had no effect.
The compounds were also injected i.p. at 1, 6 and 24 hr before the administration of bicuculline (0.3 mg/kg) s.c. The latency to the onset of generalized tonic-clonic epileptic seizures and the protection against the lethality of bicuculline were measured and evaluated as a percent of the data for vehicle-injected controls. No significant changes were obtained at the 1 hr and 6 hr time points. At the 24 hr time, however, some compounds delayed while others accelerated the onset of seizures.
The effect of the compound to delay the onset of a bicuculline-induced seizures was evaluated.
The ability of a substance to delay the onset of bicuculline-induced epileptic seizures in the mouse was measured (Table X). […] At 24 hr after i.p. injection of the cholesteryl derivative (6) at a dose of 30 mg/kg (64 pmol/kg), the onset of seizures was delayed by 30% (as compared to saline controls) after an acute i.p. injection of bicuculline at 0.3 mg/kg. […] The dexamethasone and butyl esters had no effect on seizures in mice.

[3] = tested on: general motor activity of mice; assay: General locomotor activity of mice (Stoelting electronic activity monitor); assay type: in vivo, Balb/c mice; conditions: for activity in the general motor activity test (in words): i.p., mice; for In Vivo Inhibition of General Motor Activity: graded 0-5; for effect on motor activity at low doses: 10 mg/kg (19 µmol/kg) or below, 10 mg/kg
Experimental: The effect of intraperitoneal (i.p.) injections of test compounds on the general motor activity of mice during a 60-min period was determined in a Stoelting electronic activity monitor. Dose-response curves were obtained from which the half-maximally effective values were calculated and the results are shown in Table V.
The compounds were dissolved in 25% (vols.) propylene glycol in water and injected i.p. into Balb/c mice (18-24 g). Dose-response measurements were obtained for 6 animals per dose or time point. Activity was monitored for 60 min using a Stoelting Electronic Activity Monitor (EAM) apparatus to assess the general motor activity of the animals.
The general locomotor activity of mice was measured in the Stolting activity monitor apparatus during 60 min after an intraperitoneal (i.p.) injection of a test compound.

[4] = n-Octanol/water partition coefficient; assay type: physicochemical; conditions: 5 ml n-octanol / 5 ml water, stirring 18 hours, read-out: KOW: Octanol/Water Partition Coefficient (converted)
Experimental: A Partition Coefficient was defined by the equation: [formula] representing the amount of the ester taken up per ml of n-octanol relative to the amount of the same compound taken up per ml of water.
The n-octanol/water partition coefficients were obtained from measurements of the distribution of 1, 3, 5 and 6 pmol quantities of each ^14C-labeled compound into a mixture of 5 ml of n-octanol and 5 ml water. At each concentration, the amount of labeled compound in the aqueous and n-octanol phases was calculated from the amount of radioactive material present after stirring for 18 hours.

[5] = tested on: general motor activity of mice; assay: General locomotor activity of mice (Stoelting electronic activity monitor); assay type: in vivo, Balb/c mice; conditions: Mus musculus, ip, 1 h; i.p.; 60-min general motor activity vs vehicle-injected and uninjected controls; 8 animals per dose
stereotypic behavior = assay: Stereotypy behavior test (apomorphine or D-amphetamine induced); assay type: in vivo, mice
Experimental: Stereotypy tests were carried out by the method of A. Campbell et al, Neuropharmacol. 21, 953 (1982). Test mice were pretreated with Compound 26 (i.p. injection), then 15 min later apomorphine or D-amphetamine sulfate was injected i.p. The animals were observed every 10 min and rated for stereotypic behavior in comparison to controls.
Rating scale: • 0 = no stereotypy • 1 = discontinuous sniffing • 2 = continuous sniffing • 3 = continuous sniffing and jaw movements
The average total score per animal was obtained (maximum positive score = 18) over a 60-min period. A compound which depresses this score is considered to have properties of a neuroleptic with a potential for use as an antipsychotic agent. The results (see Table VIII) show a pronounced reduction of stereotypy, down to 24% of control.

[6] = mouse, in vivo
[7] = Table IV, 380 μmol/kg s.c., 5 min, mice, mean ± S.E.M. (n = 3)
[8] = Table IX summary, 5-min Brain Penetration Index
[9] = 70 μmol/kg s.c., 5 min, mice, mean ± S.E.M. (n = 3)
[10] = 188 μmol/kg s.c., 5 min, Balb/c mice, mean ± S.E.M. (3 measurements)
[11] = 200 μmol/kg s.c., 60 min, Balb/c mice
[12] = 360 μmol/kg s.c., 180 min, Balb/c mice
[13] = 20 μmol/kg s.c., 60 min, Balb/c mice
[14] = 60 μmol/kg s.c., 240 min, Balb/c mice
[15] = 67 μmol/kg s.c., 5 min, Balb/c mice, mean ± S.E.M. (3 measurements)
[16] = 170 μmol/kg s.c., 60 min, Balb/c mice

## CCCCOC(=O)CCCN [Compound 1, Butyl Ester of GABA]
In vivo; brain
  remaining at 1 h: 4%
[1]; 380 μmol/kg s.c., 60 min, mice
  (BRAIN): 14.4 nmol/g
  (LIVER): 13.7 nmol/g
  BPI: 105%
[1]
  increase of 5-min BPI over GABA: 74 fold
[1]; [7]
  (BRAIN): 19.2 ± 0.3 nmol/g
  (LIVER): 26.0 ± 1.6 nmol/g
  BPI: 74 ± 3.4%
[1]; [8]
  BPI: 74
[2]
  In Vivo Delay of Time of Onset of Bicuculline-induced seizures: 1
  effect on bicuculline-induced seizures (in words): no effect
[3]
  activity in the general motor activity test (in words): not active

## C[C@@H]1C[C@H]2[C@@H]3CCC4=CC(=O)C=C[C@]4(C)[C@@]3(F)[C@@H](O)C[C@]2(C)[C@@]1(O)C(=O)COC(=O)CCCN [Compound 7, Dexamethasone-21-gamma-aminobutyrate]
[1]; [9]
  (BRAIN): 8.7 ± 1 nmol/g
  (LIVER): 10.8 ± 2 nmol/g
  BPI: 81 ± 20%
[1]; 70 μmol/kg s.c., 15 min, mice
  (BRAIN): 21.5 nmol/g
  (LIVER): 29.0 nmol/g
  BPI: 74%
[1]
  increase of 5-min BPI over GABA: 81 fold
[1]; [8]
  BPI: 81
[2]
  In Vivo Delay of Time of Onset of Bicuculline-induced seizures: 0
  effect on bicuculline-induced seizures (in words): no effect
[4]; n-octanol/water
  logP at 18 h: -0.0458
[3]
  In Vivo Inhibition of General Motor Activity: 0
  activity in the general motor activity test (in words): not active

## CC/C=C\C/C=C\C/C=C\CCCCCCCC(=O)OCC(COC(=O)CCCN)OC(=O)CCCN (centres unmarked) [Compound 26, 1-linolenoyl-2,3-(gamma-aminobutyroyl)propane-1,2,3-triol]
In vivo; brain
  remaining at 4 h: 60%
In vivo; kidney
  remaining at 4 h: 10%
In vivo; liver
  remaining at 4 h: 30%
[1]; [10]
  (BRAIN): 3.0 ± 0.2 nmol/g
  (LIVER): 3.3 ± 0.2 nmol/g
  BPI: 90±13%
[1]; [11]
  (BRAIN): 2.4 nmol/g
  (LIVER): 2.9 nmol/g
  BPI: 87%
[1]; [12]
  (BRAIN): 9.4 nmol/g
  (LIVER): 5.5 nmol/g
  BPI: 170%
[1]
  increase of 5-min BPI over GABA: 90 fold
[1]; [8]
  BPI: 90
[1]; mice
  time at which liver levels reach a maximum: 45 to 60 min
[2]
  anticonvulsant properties: only weak anticonvulsant properties
  In Vivo Delay of Time of Onset of Bicuculline-induced seizures: 4
[5]
  ED50: 69 µmol/kg
Stereotypic behavior; 170 μmole/kg i.p. pretreatment, D-amphetamine sulfate 3 mg/kg, total score over 60 min (max 18), n = 4
  Stereotypy score induced by D-Amphetamine Sulfate: 3.3 ± 0.9
Stereotypic behavior; 170 μmole/kg i.p. pretreatment, apomorphine 1 mg/kg, total score over 60 min (max 18), n = 4
  Stereotypy score induced by Apomorphine: 8 ± 3.6
Stereotypic behavior; 170 μmole/kg, D-amphetamine sulfate 3 mg/kg
  Stereotypy (% of control), D-Amphetamine Sulfate: 24 % of control
Stereotypic behavior; 170 μmole/kg, apomorphine 1 mg/kg
  Stereotypy (% of control), Apomorphine: 52 % of control
[4]
  logP at 18 h: 0.322
[3]; Mus musculus, ip, 1 h, depression of locomotor activity at high doses, Figure 2
  ED50: 36 mg/kg
[3]
  In Vivo Inhibition of General Motor Activity: 4
  effect on motor activity at low doses: enhancing locomotor activity; also recorded: enhances motor activity
[3]; listed as monolinolenoyl-diGABA glyceride
  effect on motor activity at low doses: stimulating activity
[6]
  level present in the brain at ED50: 2.1

## CC/C=C\C/C=C\C/C=C\CCCCCCCC(=O)OCC(COC(=O)CCCN)OC(=O)CCCCCCC/C=C\C/C=C\C/C=C\CC (centres unmarked) [Compound 28, 1,2-dilinolenoyl-3-(gamma-aminobutyroyl)propane-1,2,3-triol]
[1]; [13]
  (BRAIN): 1.4 nmol/g
  (LIVER): 3.1 nmol/g
  BPI: 44%
[1]; [14]
  (BRAIN): 7.1 nmol/g
  (LIVER): 18.3 nmol/g
  BPI: 39%
[1]; [15]
  (BRAIN): 5.9 ± 0.4 nmol/g
  (LIVER): 4.7 ± 0.4 nmol/g
  BPI: 127±8.3%
[1]; [16]
  (BRAIN): 6.0 nmol/g
  (LIVER): 8.8 nmol/g
  BPI: 68%
[1]
  increase of 5-min BPI over GABA: 127 fold
[1]; [8]
  BPI: 127
[1]; mice
  time at which liver levels reach a maximum: 45 to 60 min
[2]
  anticonvulsant properties: only weak anticonvulsant properties
  In Vivo Delay of Time of Onset of Bicuculline-induced seizures: 5
[5]
  ED50: 43 µmol/kg
[4]
  logP at 18 h: 0.82
[3]
  In Vivo Inhibition of General Motor Activity: 4
[6]
  level present in the brain at ED50: 1.7
